Values after ≈ are worked out from the molar mass of the structure shown.
Assays:
Solubility in water = type: physicochemical; details: hydrochlorides or oxalates, read-out: solubilities (in water)
Procedure, shortened: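 Water solubility given for the hydrochloride salts of most compounds and for the oxalate salts of a few.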

E. coli [1] = test: Minimum inhibitory concentration for bacteria, tube dilution, E. coli (Table V); type: cell-based; details: Escherichia coli, 48 h, read-out: Minimum Inhibitory Concentration, E. coli
C. albicans [2] = test: Minimum inhibitory concentration for fungi in presence of serum, C. albicans (Table VI); type: cell-based; details: Candida albicans; Sabouraud nutrient broth + 10% bovine serum, 28°C, 48 hours
A. niger [3] = test: Minimum inhibitory concentration for fungi in presence of serum, A. niger (Table VI); type: cell-based; details: Aspergillus niger; Sabouraud nutrient broth + 10% bovine serum, 28°C, 48 hours
Candida albicans = test: Agar well inhibition zone test against fungi, Candida albicans (Table II); details: quantity per well giving inhibition zone (500, 50, 5 μg tested); Sabouraud agar, 28°, 48 hours
Protocol: The efficacy of the compounds against fungi was tested as follows:
The test organisms, in this case the blastomycete Candida albicans and the mold Aspergillus niger, were inoculated onto Sabouraud agar plates by pouring a photometrically adjusted standard suspension of organisms on the plate. After inoculation, wells with a diameter of 5.0 mm were punched in the agar, and filled with 50 ul of the compound solution mentioned before. The quantity of compound applied thus amounted to 500 μg, 50 μg and 5 μg. After incubation at 28° for 48 hours, the quantity of compound was determined at which an inhibition of the organism's growth, in form of an inhibition zone around the corresponding well, was present.

Aspergillus niger = test: Agar well inhibition zone test against fungi, Aspergillus niger (Table II); details: quantity per well giving inhibition zone (500, 50, 5 μg tested); Sabouraud agar, 28°, 48 hours
Escherichia coli = test: Agar well inhibition zone test against bacteria, Escherichia coli (Table III); details: quantity per well giving inhibition zone (500, 50, 5 μg tested); nutrient agar, 37°, 24 hours
A. niger [4] = test: Minimum inhibitory concentration for fungi, tube dilution, A. niger (Table IV); details: Aspergillus niger, 48 h, read-out: Minimum Inhibitory Concentration, A. niger
Protocol: (§1) A tube dilution series of the respective compound in Sabouraud nutrient broth, whose individual tubes contained concentrations of 1024 μg, 512 μg, 256 μg, 128 μg, 64 μg, 32 μg, 16 μg, 8 μg, 4 μg, 2 μg, 1.1 μg and 0.5 μg/ml, was prepared and inoculated with a photometrically standardized suspension of the test organisms or the spores thereof.

C. albicans [5] = test: Minimum inhibitory concentration for fungi, tube dilution, C. albicans (Table IV); details: Candida albicans, 48 h, read-out: Minimum Inhibitory Concentration, C. albicans
Protocol: as §1

Staphylococcus aureus = test: Agar well inhibition zone test against bacteria, Staphylococcus aureus (Table III); details: quantity per well giving inhibition zone (500, 50, 5 μg tested); nutrient agar, 37°, 24 hours
Protocol: The efficacy of the compounds against bacteria was tested as follows:
The test organisms, in this case Staphylococcus aureus and Escherichia coli, were inoculated on nutrient agar as described in Example 12, wells were punched, and the solutions of the compounds were transferred to fill the wells. The quantity of compound in the wells amounted again to 500 μg, 50 μg and 5 μg.
After incubation a 37° for 24 hours the quantity of compound was determined at which an inhibition of the organism's growth, in the form of an inhibition zone around the corresponding well, occurred.

Staph. aureus = test: Minimum inhibitory concentration for bacteria, tube dilution, Staph. aureus (Table V); details: Staphylococcus aureus, 48 h, read-out: Minimum Inhibitory Concentration, Staph. aureus
Protocol: A tube dilution series of the respective compound in nutrient broth whose individual tubes contained concentrations of 1024 μg, 512 μg, 256 μg, 128 μg, 64 μg, 32 μg, 1 μg, 8 μg, 4 μg, 2 μg, 1.1 μg and 0.5 μg/ml was prepared and inoculated with a photometrically standardized suspension of the test organisms.

E. coli [6] = test: Minimum inhibitory concentration for bacteria in presence of serum, E. coli (Table VII); type: cell-based; details: Escherichia coli; nutrient broth + 10% serum, 37°C, 48 hours
[7] = test system: Mycobacterium tuberculosis II 37 RV (typus humanus); test: Efficacy against Mycobacteria, Tb-broth dilution series (Table I); type: cell-based; details: 504 h, Dubos Tb-broth + 10% bovine serum, 21 days, read-out: Minimum Inhibitory Concentration

Compound | solubility (Solubility in water) [mg/mL] | MIC (E. coli [1]) [µg/mL] | MIC (C. albicans [2]) [µg/mL] | MIC (A. niger [3]) [µg/mL] | Inhibition Area at μg, Cand. albicans (Candida albicans) [µg] | Inhibition Area at μg, Asp. niger (Aspergillus niger) [µg] | Inhibition Area at μg, E. coli (Escherichia coli) [µg] | MIC (A. niger [4]) [µg/mL] | MIC (C. albicans [5]) [µg/mL] | Inhibition Area at μg, Staph. aureus (Staphylococcus aureus) [µg] | MIC (Staph. aureus) [µg/mL] | MIC (E. coli [6]) [µg/mL] | MIC [7] [µg/mL]
CCCCCCCCN1CCN(CCCCCCN2CCN(C(C)C(=Cc3ccccc3)Cc3ccccc3)CC2)CC1 (stereo not drawn) [LXII, 1-phenyl-2-benzyl-3-[4'-w-(4"-n-octyl-piperazino-1")-n-hexyl-piperazino-1']-butene-1] | 25 (≈ 42600 µM) | 1020 (≈ 1740 µM) | 1020 | 512 | 5 | 50 | 50 | < 0.5 | 2 (≈ 3.41 µM) | 5 | 16 (≈ 27.3 µM) | – | –
Clc1ccc(C=C(CCN2CCN(CCN3CCCCC3)CC2)Cc2ccc(Cl)cc2)cc1 [LXIII, 1-(p-chloro-phenyl)-2-(p-chlorobenzyl)-4-[4'-(β-piperidino-ethyl)-piperazino-1']-butene-1] | < 10 | 64 (≈ 132 µM) | 128 | 32 | 5 | 50 | 5 | < 0.5 | 32 (≈ 65.8 µM) | 5 | 8 (≈ 16.4 µM) | – | –
C(=C(CCN1CCN(CCN2CCCCC2)CC1)Cc1ccccc1)c1ccccc1 [LXIV] | 100 (≈ 239000 µM) | 256 (≈ 613 µM) | 128 | 8 | 50 | 5 | 5 | 8 (≈ 19.2 µM) | 8 (≈ 19.2 µM) | 5 | 8 (≈ 19.2 µM) | – | –
CC(C(=Cc1ccccc1Cl)Cc1ccccc1Cl)N1CCN(CCN2CCN(C)CC2)CC1 (stereo not drawn) [LXVI] | 100 (≈ 199000 µM) | 128 (≈ 255 µM) | 1020 | 128 | 5 | 5 | 50 | < 0.5 | 4 (≈ 7.98 µM) | 5 | 32 (≈ 63.8 µM) | – | –
CCCCCCCCNCCCCCCN1CCN(C(C)C(=Cc2ccccc2)Cc2ccccc2)CC1 (stereo not drawn) [XL, 1-phenyl-2-benzyl-3-[4'-(w-n-octyl-amino-n-hexyl)piperazino-1']-butene-1] | 10 (≈ 19300 µM) | 32 (≈ 61.8 µM) | 64 | 2 | 5 | 5 | 5 | < 0.5 | < 0.5 | 5 | < 0.5 | 1020 | –
CNCCCCCCN1CCN(C(C)C(=Cc2ccccc2)Cc2ccccc2)CC1 (stereo not drawn) [XLI, 1-phenyl-2-benzyl-3-[4'-(w-methyl-amino-n-hexyl)piperazino-1']-butene-1] | 100 (≈ 238000 µM) | 32 (≈ 76.3 µM) | 128 | 8 | 5 | 5 | 50 | 1 (≈ 2.38 µM) | 2 (≈ 4.77 µM) | 50 | 32 (≈ 76.3 µM) | 512 | –
CC(C(=Cc1ccc(Cl)cc1)Cc1ccc(Cl)cc1)N1CCN(CCN2CCN(C)CC2)CC1 (stereo not drawn) [XLII, 1-p-chloro-phenyl-2-p-chloro-benzyl-3-{4'-[β-(4"-methyl-piperazino-1")-ethyl]-piperazino-1'}-butene-1] | 100 (≈ 199000 µM) | 32 (≈ 63.8 µM) | 256 | 32 | 5 | 5 | 5 | < 0.5 | < 0.5 | 5 | 32 (≈ 63.8 µM) | 1020 | –
CCCCCCCC[N+](C)(C)CCN1CCN(C(C)C(=Cc2ccccc2)Cc2ccccc2)CC1 (stereo not drawn) [XLIII, Dimethyl-n-octyl-β-[4-(1'-phenyl-2'-benzylbutene-1'-yl-3')-piperazino-1]-ethyl-ammoniumbromide] | < 10 | 1 | 128 | 64 | 5 | 5 | 5 | < 0.5 | < 0.5 | 5 | < 0.5 | 128 | –
CC(N1CCN(CCO)CC1)C(O)(Cc1ccc(Cl)cc1)Cc1ccc(Cl)cc1 (stereo not drawn) [XLVII, 1-(p-Chloro-phenyl)-2-(p-chloro-benzyl)-3-[4'-(β-hydroxyethyl)-piperazino-1']-butanol-2] | 100 (≈ 229000 µM) | – | 256 | 64 | 5 | 5 | 500 | 32 (≈ 73.2 µM) | 32 (≈ 73.2 µM) | 5 | 4 (≈ 9.14 µM) | > 1020 | –
CC(N1CCN(C)CC1)C(O)(Cc1ccc(Cl)cc1)Cc1ccc(Cl)cc1 (stereo not drawn) [XLVIII, 1-p-chlorophenyl-2-p-chlorobenzyl-3-(4'-methyl-piperazino-1')-butanol-2] | 50 (≈ 123000 µM) | > 1020 | > 1020 | 256 | 50 | 50 | 50 | 4 (≈ 9.82 µM) | 8 (≈ 19.6 µM) | 50 | 128 (≈ 314 µM) | – | –
CC(N1CCN(CCN(C)Cc2ccccc2)CC1)C(O)(Cc1ccccc1)Cc1ccccc1 (stereo not drawn) [XV, 1-phenyl-2-benzyl-3-[4'-(β-N-methyl-N-benzylamino-ethyl)-piperazino-1']-butanol-2] | 100 (≈ 212000 µM) | > 1020 | 512 | – | 50 | 50 | 50 | 128 (≈ 271 µM) | 16 (≈ 33.9 µM) | 50 | > 1020 | – | –
CNCCN1CCN(C(C)C(=Cc2ccccc2)Cc2ccccc2)CC1 (stereo not drawn) [XXV, 1-phenyl-2-benzyl-3-[4'-(β-methylamino-ethyl)-piperazino-1']-butene-1] | 100 (≈ 275000 µM) | 64 (≈ 176 µM) | 256 | 64 | 5 | 5 | 50 | 8 (≈ 22 µM) | 64 (≈ 176 µM) | 5 | 64 (≈ 176 µM) | 512 | 10
CC(C(=Cc1ccccc1)Cc1ccccc1)N1CCN(CCN(C)C)CC1 (stereo not drawn) [XXVI, 1-phenyl-2-benzyl-3-[4'-(β-dimethylamino-ethyl)-piperazino-1']-butene-1] | 100 (≈ 265000 µM) | 128 (≈ 339 µM) | 16 | 32 | 5 | 5 | 50 | 4 (≈ 10.6 µM) | 8 (≈ 21.2 µM) | 50 | 128 (≈ 339 µM) | – | –
CC(C(=Cc1ccccc1)Cc1ccccc1)N1CCN(CCN2CCN(CCc3ccccc3)CC2)CC1 (stereo not drawn) [XXXIX, 1-phenyl-2-benzyl-3-{4'-[β-(4"-β-phenethylpiperazino-1")-ethyl]-piperazino-1'}-butene-1] | 50 (≈ 95600 µM) | > 1020 | 64 | 128 | 5 | 5 | 50 | 32 (≈ 61.2 µM) | 4 (≈ 7.65 µM) | 5 | 32 (≈ 61.2 µM) | – | –

Source: patent publication US3947411A, “Novel 1-aryl-2-arylalkyl-3-or-4-[4'-(substituted-alkyl)piperazino-1']butanols- 2-or-butenes-1, and methods of manufacture thereof” (Warner-Lambert Company, priority 1972, dated 1976)
